Measured values reported in patent publication US10765114B2, “4-amino-6-(pyridyl and 2-substitutedphenyl)-picolinates and 6-amino-2-(pyridyl and 2-substitutedphenyl)-pyrimidine-4-carboxylates and their use as herbicides” (Dow AgroSciences LLC, priority 2013, dated 2020).

How the values were obtained:
Experiment in all cases: Postemergence Herbicidal Activity in Direct Seeded Rice
Format in all cases: in vivo
[1] = test system: CYPSS: sedge including small-flower flatsedge (Cyperus difformis), yellow nutsedge (Cyperus esculentus), rice flatsedge (Cyperus iria); settings: for Visual Growth Reduction (%) 21 Days After Application, CYPSS: postemergence, direct seeded rice; for GR50, CYPSS: Growth reduction of 50% of plant growth; for GR50, CYPSS / GR80, CYPSS: probit analysis; for GR80, CYPSS: Growth reduction of 80% of plant growth
Excerpt: (§1) Seeds or nutlets of the desired test plant species were planted in a soil matrix prepared by mixing a loam soil (43 percent silt, 19 percent clay, and 38 percent sand, with a pH of about 8.1 and an organic matter content of about 1.5 percent) and river sand in an 80 to 20 ratio. The soil matrix was contained in plastic pots with a surface area of 139.7 cm^2. When required to ensure good germination and healthy plants, a fungicide treatment and/or other chemical or physical treatment was applied. The plants were grown for 10-17 days in a greenhouse with an approximate 14-h photoperiod which was maintained at about 29° C. during the day and 26° C. during the night. Nutrients and water were added on a regular basis and supplemental lighting was provided with overhead metal halide 1000-Watt lamps as necessary. The plants were employed for testing when they reached the second or third true leaf stage.
(§2) A weighed amount, determined by the highest rate to be tested, of each test compound was placed in 25 mL glass vials and dissolved in a volume of 97:3 v/v acetone-DMSO to obtain 12× stock solutions. […] The concentrated stock solutions were added to the spray solutions so that the final acetone and DMSO concentrations were 16.2% and 0.5%, respectively. Spray solutions were diluted to the appropriate final concentrations with the addition of 10 mL of an aqueous mixture of 1.5% (v/v) Agri-dex crop oil concentrate. The final spray solutions contained 1.25% (v/v) Agri-dex crop oil concentrate. Compound requirements are based upon a 12 mL application volume at a rate of 187 L/ha. Formulated compounds were applied to the plant material with an overhead Mandel track sprayer equipped with 8002E nozzles calibrated to deliver 187 L/ha over an application area of 0.503 square meters (m^2) at a spray height of 18 inches (43 cm) above average plant canopy height. Control plants were sprayed in the same manner with the solvent blank.
(§3) The treated plants and control plants were placed in a greenhouse as described above and watered by sub-irrigation to prevent wash-off of the test compounds. After 20-22 days, the condition of the test plants, compared with that of the untreated plants, was determined visually and scored on a scale of 0 to 100 percent where 0 corresponds to no injury and 100 corresponds to complete kill and presented as indicated in Table A.
(§4) By applying the well-accepted probit analysis as described by J. Berkson in Journal of the American Statistical Society, 48, 565 (1953) and by D. Finney in “Probit Analysis” Cambridge University Press (1952), herbicidal injury of a specific compound at various rates can be used to calculate GR20, GR50, GR80 and GR90 values, which are defined as growth reduction factors that correspond to the effective dose of herbicide required to provide plant growth reduction (GR) of 20 percent, 50 percent, 80 percent and 90 percent, respectively. Probit analysis was applied to data collected from multiple dose rates of individual compounds utilizing the procedures explained in the following examples. The analysis of those dose rates is captured in the following tables

[2] = test system: BRAPP: broadleaf signalgrass, Brachiaria platyphylla; settings: for Visual Growth Reduction (%) 21 Days After Application, BRAPP: postemergence, direct seeded rice; for GR50, BRAPP: Growth reduction of 50% of plant growth; for GR50, BRAPP / GR80, BRAPP: probit analysis; for GR80, BRAPP: Growth reduction of 80% of plant growth
Excerpt: as §1, §2, §3, §4

[3] = test system: SCPJU: Japanese bulrush, Schoenoplectus juncoides; settings: for Visual Growth Reduction (%) 21 Days After Application, SCPJU: postemergence, direct seeded rice; for GR50, SCPJU: Growth reduction of 50% of plant growth; for GR50, SCPJU / GR80, SCPJU: probit analysis; for GR80, SCPJU: Growth reduction of 80% of plant growth
Excerpt: as §1, §2, §3, §4

[4] = test system: SEBEX: hemp sesbania, Sesbania exaltata; settings: for Visual Growth Reduction (%) 21 Days After Application, SEBEX: postemergence, direct seeded rice; for GR50, SEBEX: Growth reduction of 50% of plant growth; for GR50, SEBEX / GR80, SEBEX: probit analysis; for GR80, SEBEX: Growth reduction of 80% of plant growth
Excerpt: as §1, §2, §3, §4

[5] = test system: LEFSS: sprangletop including Chinese sprangletop (Leptochloa chinensis), green sprangletop (Leptochloa dubia); settings: for Visual Growth Reduction (%) 21 Days After Application, LEFSS: postemergence, direct seeded rice; for GR50, LEFSS: Growth reduction of 50% of plant growth; for GR50, LEFSS / GR80, LEFSS: probit analysis; for GR80, LEFSS: Growth reduction of 80% of plant growth
Excerpt: as §1, §2, §3, §4

[6] = test system: ORYSS: Oryza sativa; settings: for Visual Growth Reduction (%) 21 Days After Application, ORYSS: postemergence, direct seeded rice; for GR20, ORYSS: Growth reduction of 20% of plant growth, probit analysis
Excerpt: as §1, §2, §3, §4

[7] = test system: ECHSS: including barnyardgrass, (Echinochloa crus-galli), junglerice, (Echinochloa colonum); settings: for Visual Growth Reduction (%) 21 Days After Application, ECHSS: postemergence, direct seeded rice; for GR50, ECHSS: Growth reduction of 50% of plant growth; for GR50, ECHSS / GR80, ECHSS: probit analysis; for GR80, ECHSS: Growth reduction of 80% of plant growth
Excerpt: as §1, §2, §3, §4

| Structure (SMILES) | Visual Growth Reduction (%) 21 Days After Application, CYPSS ([1]; 35 g ai/ha) | Visual Growth Reduction (%) 21 Days After Application, CYPSS ([1]; 70 g ai/ha) | GR50, CYPSS [1] [g ai/ha] | GR80, CYPSS [1] [g ai/ha] | Visual Growth Reduction (%) 21 Days After Application, BRAPP ([2]; 35 g ai/ha) | Visual Growth Reduction (%) 21 Days After Application, BRAPP ([2]; 70 g ai/ha) | GR50, BRAPP [2] [g ai/ha] | GR80, BRAPP [2] [g ai/ha] | GR50, SCPJU [3] [g ai/ha] | GR80, SCPJU [3] [g ai/ha] | Visual Growth Reduction (%) 21 Days After Application, SEBEX ([4]; 35 g ai/ha) | Visual Growth Reduction (%) 21 Days After Application, SEBEX ([4]; 70 g ai/ha) | GR50, SEBEX [4] [g ai/ha] | GR80, SEBEX [4] [g ai/ha] | Visual Growth Reduction (%) 21 Days After Application, LEFSS ([5]; 35 g ai/ha) | Visual Growth Reduction (%) 21 Days After Application, LEFSS ([5]; 70 g ai/ha) | GR50, LEFSS [5] [g ai/ha] | GR80, LEFSS [5] [g ai/ha] | Visual Growth Reduction (%) 21 Days After Application, ORYSS ([6]; 35 g ai/ha) | Visual Growth Reduction (%) 21 Days After Application, ORYSS ([6]; 70 g ai/ha) | other results |
| --- | --- | --- | --- | --- | --- | --- | --- | --- | --- | --- | --- | --- | --- | --- | --- | --- | --- | --- | --- | --- | --- |
| COC(=O)c1nc(-c2ccc(C(F)(F)F)nc2)c(F)c(N)c1Cl [Compound 59, methyl 4-amino-5-chloro-3-fluoro-6′-(trifluoromethyl)-[2,3′-bipyridine]-6-carboxylate] | A (95-100) | A (95-100) | 2 | 3 | B (85-94) | B (85-94) | 3 | 16 | <17.5 | <17.5 | A (95-100) | A (95-100) | 1 | 1 | D (60-74) | B (85-94) | 27 | 48 | E (45-59) | E (45-59) | Visual Growth Reduction (%) 21 Days After Application, SCPJU ([3]; 35 g ai/ha): A (95-100); Visual Growth Reduction (%) 21 Days After Application, SCPJU ([3]; 70 g ai/ha): A (95-100); GR20, ORYSS [6]: 18 g ai/ha; Visual Growth Reduction (%) 21 Days After Application, ECHSS ([7]; 35 g ai/ha): B (85-94); Visual Growth Reduction (%) 21 Days After Application, ECHSS ([7]; 70 g ai/ha): B (85-94); GR50, ECHSS [7]: 3 g ai/ha; GR80, ECHSS [7]: 15 g ai/ha |
| COC(=O)c1nc(-c2ccc(C(F)(F)F)nc2)c(Cl)c(N)c1Cl [Compound 83] | A (95-100) | A (95-100) | 2 | 3 | A (95-100) | A (95-100) | 6 | 16 | <17.5 | <17.5 | A (95-100) | A (95-100) | 2 | 5 | B (85-94) | D (60-74) | 27 | 53 | E (45-59) | F (30-44) | Visual Growth Reduction (%) 21 Days After Application, SCPJU ([3]; 35 g ai/ha): A (95-100); Visual Growth Reduction (%) 21 Days After Application, SCPJU ([3]; 70 g ai/ha): A (95-100); GR20, ORYSS [6]: 23 g ai/ha; Visual Growth Reduction (%) 21 Days After Application, ECHSS ([7]; 35 g ai/ha): A (95-100); Visual Growth Reduction (%) 21 Days After Application, ECHSS ([7]; 70 g ai/ha): A (95-100); GR50, ECHSS [7]: 3 g ai/ha; GR80, ECHSS [7]: 9 g ai/ha |
| COC(=O)c1nc(-c2ccc(Cl)nc2F)c(F)c(N)c1Cl [Compound 45] | B (85-94) | A (95-100) | 3 | 7 | G (0-29) | G (0-29) | >140 | >140 | 1 | 1 | A (95-100) | A (95-100) | 1 | 2 | G (0-29) | D (60-74) | >140 | >140 | G (0-29) | G (0-29) | GR20, ORYSS [6]: >140 g ai/ha; Visual Growth Reduction (%) 21 Days After Application, ECHSS ([7]; 35 g ai/ha): F (30-44); Visual Growth Reduction (%) 21 Days After Application, ECHSS ([7]; 70 g ai/ha): B (85-94); GR50, ECHSS [7]: 16 g ai/ha; GR80, ECHSS [7]: >140 g ai/ha |
| COC(=O)c1nc(-c2ccc(C(F)(F)F)nc2)c(C)c(N)c1Cl [Compound 32] | A (95-100) | A (95-100) | 1 | 2 | B (85-94) | B (85-94) | 14 | 35 | <17.5 | <17.5 | A (95-100) | A (95-100) | 3 | 9 | F (30-44) | E (45-59) | 59 | 133 | G (0-29) | F (30-44) | Visual Growth Reduction (%) 21 Days After Application, SCPJU ([3]; 35 g ai/ha): A (95-100); Visual Growth Reduction (%) 21 Days After Application, SCPJU ([3]; 70 g ai/ha): A (95-100); GR20, ORYSS [6]: 36 g ai/ha; Visual Growth Reduction (%) 21 Days After Application, ECHSS ([7]; 35 g ai/ha): B (85-94); Visual Growth Reduction (%) 21 Days After Application, ECHSS ([7]; 70 g ai/ha): A (95-100); GR50, ECHSS [7]: 21 g ai/ha; GR80, ECHSS [7]: 35 g ai/ha |
